Results as given in PubChem BioAssay AID298 (DTP/NCI, 2004).
Where “and” joins values, the source holds several entries; their conditions need not be identical. Equal entries are not always repeated. Records with an inconclusive call do not appear.

Test system: MX-1 breast xenograft, intrarenal, nude mice, tumor weight
Experiment: NCI In Vivo Anticancer Drug Screen. Data for tumor model Human Mammary Carcinoma MX-1 Xenograft (intrarenal inoculation) in NU/NU BALB/C (nude) mice
Settings: endpoint: mean tumor weight change, higher = larger tumour
Procedure, shortened: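 T/C readout: treated-group measurement over vehicle-control measurement, using tumor size or survival in tumor-bearing mice.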

[1] = dose: 12.5 mg/kg/injection, schedule: Q04DX003 (ip), vehicle: saline with Tween-80
[2] = dose: 25.0 mg/kg/injection, schedule: Q01DX010 (sc), vehicle: saline
[3] = dose: 50.0 mg/kg/injection, schedule: Q01DX010 (sc), vehicle: saline
[4] = dose: 300.0 mg/kg/injection, schedule: Q04DX003 (sc), vehicle: saline with Tween-80
[5] = dose: 300.0 mg/kg/injection, schedule: Q04DX003 (ip), vehicle: other
[6] = dose: 600.0 mg/kg/injection, schedule: Q04DX003 (sc), vehicle: saline with Tween-80
[7] = dose: 1200.0 mg/kg/injection, schedule: Q04DX003 (sc), vehicle: saline with Tween-80
[8] = dose: 25.0 mg/kg/injection, schedule: Q04DX003 (ip), vehicle: saline
[9] = dose: 50.0 mg/kg/injection, schedule: Q04DX003 (ip), vehicle: saline

`C[n+]1c(-c2ccc(NC(=O)c3ccc(C(=O)Nc4ccc(-c5cn6ccccc6[n+]5C)cc4)cc3)cc2)cn2ccccc21` was tested, and the T/C [1] was 41 % of control.

For `COc1cccc2c1C(=O)c1c(O)c3c(c(O)c1C2=O)CC(O)(C(=O)CO)CC3OC1CC(N)C(O)C(C)O1` (stereo not given), the T/C [2] was 41 % of control and the T/C [3] was 22 % of control.

`C[n+]1c(/C=N/NC(N)=S)ccc2ccccc21` was tested, and the T/C [4] was 78 % of control.

In the case of `NC(=S)N/N=C/c1ncccc1O`, the T/C (dose: 150.0 mg/kg/injection, schedule: Q04DX003 (ip), vehicle: suspension in saline) is reported as 86 % of control and the T/C (dose: 300.0 mg/kg/injection, schedule: Q04DX003 (ip), vehicle: suspension in saline) is reported as 93 % of control.

With `C[C@@](O)(/C=C/[C@H]1CC=CC(=O)O1)[C@@H](C[C@@H](O)\C=C/C=C\C=C\CO)OP(=O)(O)O` the T/C (dose: 1.5 mg/kg/injection, schedule: Q01DX009 (ip), vehicle: other) was 113 % of control, the T/C (dose: 6.0 mg/kg/injection, schedule: Q01DX009 (ip), vehicle: other) was 57 % of control and the T/C (dose: 12.0 mg/kg/injection, schedule: Q01DX009 (ip), vehicle: other) was 61 % of control. For the same molecule, the T/C (dose: 37.5 mg/kg/injection, schedule: Q04DX003 (sc), vehicle: other) was 29 % of control.

For `O=C1CCC(=O)N1CO`, the T/C (dose: 300.0 mg/kg/injection, schedule: Q04DX003 (sc), vehicle: saline) was 73 % of control and the T/C (dose: 600.0 mg/kg/injection, schedule: Q04DX003 (sc), vehicle: saline) was 86 % of control.

For `Cc1noc2nc(-c3ccccc3)cc(N3CCN(C)CC3)c12`, the T/C (dose: 75.0 mg/kg/injection, schedule: Q04DX003 (ip), vehicle: other) was 83 % of control, the T/C (dose: 150.0 mg/kg/injection, schedule: Q04DX003 (ip), vehicle: other) was 120 % of control and the T/C [5] was 92 % of control.

For `CCC(NC(N)=O)C(CC)NC(N)=O` (stereo not given), the T/C (dose: 6.25 mg/kg/injection, schedule: Q04DX003 (ip), vehicle: saline with Tween-80) was 89 % of control, the T/C [1] was 78 % of control and the T/C (dose: 25.0 mg/kg/injection, schedule: Q04DX003 (ip), vehicle: saline with Tween-80) was 74 % of control.

With `C=CC1(C)CC(=O)C2(O)C(C)(O1)C(OC(C)=O)C(O)C1C(C)(C)CCC(O)C12C` (stereo not given) the T/C (dose: 8.0 mg/kg/injection, schedule: Q04DX003 (ip), vehicle: DMSO) was 159 % of control, the T/C (dose: 16.0 mg/kg/injection, schedule: Q04DX003 (ip), vehicle: DMSO) was 100 % of control and 115 % of control and the T/C (dose: 64.0 mg/kg/injection, schedule: Q04DX003 (ip), vehicle: DMSO) was 109 % of control.

In the case of `CCn1c(-c2ccc(OC(C)=O)cc2)c(C)c2cc(OC(C)=O)ccc21`, the T/C (dose: 150.0 mg/kg/injection, schedule: Q04DX003 (ip), vehicle: Klucel (hydroxypropylcellulose) (HPC)) is reported as 68 % of control, the T/C (dose: 300.0 mg/kg/injection, schedule: Q04DX003 (ip), vehicle: Klucel (hydroxypropylcellulose) (HPC)) is reported as 61 % of control and the T/C (dose: 600.0 mg/kg/injection, schedule: Q04DX003 (ip), vehicle: Klucel (hydroxypropylcellulose) (HPC)) is reported as 63 % of control. The T/C (dose: 1200.0 mg/kg/injection, schedule: Q04DX003 (ip), vehicle: Klucel (hydroxypropylcellulose) (HPC)) was 47 % of control.

With `Cc1ccc(C2=CSC3=NCCN23)cc1Cl` the T/C (dose: 37.5 mg/kg/injection, schedule: Q04DX003 (ip), vehicle: saline) was 85 % of control.

`COC(=O)CC(N)C(=O)O` (stereo not given) was tested, and the T/C [4] was 78 % of control, the T/C [6] was 121 % of control and the T/C [7] was 99 % of control. For the same molecule, the T/C (dose: 2400.0 mg/kg/injection, schedule: Q04DX003 (sc), vehicle: saline with Tween-80) was 101 % of control.

For `CCCCCCCCCCCCCCCCCCOCC(CO)OC` (stereo not given), the T/C (dose: 150.0 mg/kg/injection, schedule: Q04DX003 (ip), vehicle: saline with Tween-80) was 117 % of control, the T/C (dose: 300.0 mg/kg/injection, schedule: Q04DX003 (ip), vehicle: saline with Tween-80) was 93 % of control and the T/C (dose: 600.0 mg/kg/injection, schedule: Q04DX003 (ip), vehicle: saline with Tween-80) was 81 % of control. The T/C (dose: 1200.0 mg/kg/injection, schedule: Q04DX003 (ip), vehicle: saline with Tween-80) was 46 % of control.

In the case of `C/C(=N\NC(=S)N1CC2CCC(CC2)C1)c1nccs1`, the T/C (dose: 75.0 mg/kg/injection, schedule: Q04DX003 (ip), vehicle: saline with Tween-80) is reported as 78 % of control.

With `O=NNc1ccccn1` the T/C (dose: 4.0 mg/kg/injection, schedule: Q01DX010 (sc), vehicle: saline) was 124 % of control, the T/C (dose: 16.0 mg/kg/injection, schedule: Q01DX010 (sc), vehicle: saline) was 80 % of control and the T/C (dose: 32.0 mg/kg/injection, schedule: Q01DX010 (sc), vehicle: saline) was 14 % of control.

For `Nc1n[nH]c2ccccc12`, the T/C [5] was 93 % of control and the T/C (dose: 600.0 mg/kg/injection, schedule: Q04DX003 (ip), vehicle: other) was 108 % of control.

`O=P1(N(CCCl)CCCl)NCCCO1` (stereo not given) was tested, and the T/C [2] was 3 % of control, the T/C [8] was 1 % of control and -23 % of control and the T/C [3] was -11 % of control. The T/C [9] was -88 % of control and -100 % of control, the T/C (dose: 100.0 mg/kg/injection, schedule: Q04DX003 (sc), vehicle: saline) was -95 % of control and the T/C (dose: 200.0 mg/kg/injection, schedule: Q04DX003 (ip), vehicle: saline) was -73 % of control.

With `Cc1ccccc1N=C(c1ccccc1)C1C(=O)c2ccccc2C1=O` the T/C (dose: 150.0 mg/kg/injection, schedule: Q04DX003 (ip), vehicle: DMSO) was 117 % of control, the T/C (dose: 300.0 mg/kg/injection, schedule: Q04DX003 (ip), vehicle: DMSO) was 102 % of control and the T/C (dose: 600.0 mg/kg/injection, schedule: Q04DX003 (ip), vehicle: DMSO) was 103 % of control. The T/C (dose: 1200.0 mg/kg/injection, schedule: Q04DX003 (ip), vehicle: DMSO) was 65 % of control.

`C/C(=N\NC(=O)c1ccccc1O)c1cccc(/C(C)=N/NC(=O)c2ccccc2O)n1` was tested, and the T/C [8] was 109 % of control, the T/C [9] was 77 % of control and the T/C (dose: 100.0 mg/kg/injection, schedule: Q04DX003 (ip), vehicle: saline) was 100 % of control.

For `S=C1CCCCN1`, the T/C (dose: 150.0 mg/kg/injection, schedule: Q04DX003 (ip), vehicle: distilled water + Tween-80 + alcohol) was 82 % of control and the T/C (dose: 300.0 mg/kg/injection, schedule: Q04DX003 (ip), vehicle: distilled water + Tween-80 + alcohol) was 72 % of control.

With `COc1ccc([C@@]23Oc4cc(OC)cc(OC)c4[C@]2(O)[C@H](O)[C@H](C(=O)N(C)C)[C@H]3c2ccccc2)cc1` the T/C (dose: 2.0 mg/kg/injection, schedule: Q04DX003 (ip), vehicle: Klucel (hydroxypropylcellulose) (HPC)) was 92 % of control, the T/C (dose: 4.0 mg/kg/injection, schedule: Q04DX003 (ip), vehicle: Klucel (hydroxypropylcellulose) (HPC)) was 79 % of control and the T/C (dose: 8.0 mg/kg/injection, schedule: Q04DX003 (ip), vehicle: Klucel (hydroxypropylcellulose) (HPC)) was 79 % of control. The T/C (dose: 16.0 mg/kg/injection, schedule: Q04DX003 (ip), vehicle: Klucel (hydroxypropylcellulose) (HPC)) was 88 % of control.

In the case of `CCOC(=O)Nc1cc(NC(C)/C(=N/O)c2ccccc2)c([N+](=O)[O-])c(N)n1` (stereo not given), the T/C (dose: 18.75 mg/kg/injection, schedule: Q04DX003 (ip), vehicle: Klucel (hydroxypropylcellulose) (HPC)) is reported as 84 % of control, the T/C (dose: 37.5 mg/kg/injection, schedule: Q04DX003 (ip), vehicle: Klucel (hydroxypropylcellulose) (HPC)) is reported as 60 % of control and the T/C (dose: 75.0 mg/kg/injection, schedule: Q04DX003 (ip), vehicle: Klucel (hydroxypropylcellulose) (HPC)) is reported as 72 % of control.

For `O=[N+]([O-])c1ccc(N2CCOCC2)c2c1no[n+]2[O-]`, the T/C (dose: 150.0 mg/kg/injection, schedule: Q04DX003 (sc), vehicle: saline with Tween-80) was 99 % of control, the T/C [4] was 55 % of control and the T/C [6] was 74 % of control. For the same molecule, the T/C [7] was 63 % of control.

In the case of `CC(=O)OCC(=O)[C@@]12OC(C)(C)O[C@@H]1C[C@H]1[C@@H]3CC(C=O)=C4C=C(OCCCl)CC[C@]4(C)[C@@]3(F)[C@@H](O)C[C@@]12C`, the T/C (dose: 25.0 mg/kg/injection, schedule: Q04DX003 (sc), vehicle: Klucel (hydroxypropylcellulose) (HPC)) is reported as 93 % of control, the T/C (dose: 50.0 mg/kg/injection, schedule: Q04DX003 (sc), vehicle: Klucel (hydroxypropylcellulose) (HPC)) is reported as 81 % of control and the T/C (dose: 100.0 mg/kg/injection, schedule: Q04DX003 (sc), vehicle: Klucel (hydroxypropylcellulose) (HPC)) is reported as 71 % of control. For the same molecule, the T/C (dose: 200.0 mg/kg/injection, schedule: Q04DX003 (sc), vehicle: Klucel (hydroxypropylcellulose) (HPC)) was 78 % of control.

`NC(CNC(=O)CBr)C(=O)O` (stereo not given) was tested, and the T/C (dose: 37.5 mg/kg/injection, schedule: Q04DX003 (sc), vehicle: water) was 82 % of control and the T/C (dose: 150.0 mg/kg/injection, schedule: Q04DX003 (sc), vehicle: water) was 54 % of control.

For `CN(C)CN1C(=O)S/C(=C2\C(=O)N(CN(C)C)c3ccccc32)C1=O`, the T/C (dose: 100.0 mg/kg/injection, schedule: Q04DX003 (ip), vehicle: Klucel (hydroxypropylcellulose) (HPC)) was 102 % of control, the T/C (dose: 200.0 mg/kg/injection, schedule: Q04DX003 (ip), vehicle: Klucel (hydroxypropylcellulose) (HPC)) was 100 % of control and the T/C (dose: 400.0 mg/kg/injection, schedule: Q04DX003 (ip), vehicle: Klucel (hydroxypropylcellulose) (HPC)) was 80 % of control.
